Test results: article PMC6162447, “Engineering Gain-of-Function Analogues of the Spider Venom Peptide HNTX-I, A Potent Blocker of the hNaV1.7 Sodium Channel” (Toxins, 2018)
Entries after “also recorded” stand apart in the source; their conditions may differ. Bridge positions count the residues as written; N and C are the ends. Peptide text beside a SMILES is read from it.

Legend:
hNaV1.7 = target: T1, hNaV1.7 (Homo sapiens, UniProt Q15858); assay: Whole-cell patch clamp on hNaV1.7 expressed in HEK 293 cells; format: cell-based; details: for IC50: HEK 293 cells transfected with hNaV1.7 plus human β1 and β2 subunits, room temperature (20–25 °C), 50 ms depolarization to −10 mV from holding −100 mV, mean ± SEM
T1 construct: expressed in transfected cells; host or cells: HEK 293
Description: We maintained human embryonic kidney (HEK) 293 cells at 37 °C in a humidified 5% CO2 incubator in Dulbecco’s Modified Eagle’s Medium (DMEM) supplemented with 10% fetal bovine serum (FBS), 2 mM L-glutamine, 100 units/mL penicillin and 100 µg/mL streptomycin. cDNA genes encoding rat Nav1.2 and mouse Nav1.6 were subcloned into the vectors pcDNA3.1, respectively. We subcloned the gene that encodes hNaV1.7 into the vector pcDNA3.1-mod. We transfected the hNaV1.7 channel (3 μg) together with plasmids β1- (1 μg) and β2-eGFP ([…]), which encode the human β1 and β2 subunits, and Nav1.2 and Nav1.6 together with eGFP in HEK 293 cells using Lipofectamine 2000 (Invitrogen, Carlsbad, CA, USA) per the manufacturer’s instructions.
We performed whole-cell recordings using an EPC 10 patch clamp platform (HEKA, Elektronik, Lambrecht, Germany) at room temperature (20–25 °C). We made suction pipettes with access resistance of 2.0–3.0 MΩ from borosilicate glass capillary tubes (VWR micropipettes; VWR Co., West Chester, PA, USA) using a 2-step vertical microelectrode puller (PC-10; Narishige Co., Ltd., Tokyo, Japan) and compensated for voltage errors using 80% serial-resistance compensation. The standard pipette solution contained (in mM): 140 CsCl, 10 NaCl, 1 ethylene glycol-bis (β-aminoethyl ether)-N,N,N′,N′-tetraacetic acid (EGTA), and 10 HEPES (pH 7.4). The bath solution contained (in mM): 140 NaCl, 2 CaCl2, 1 MgCl2, 5 KCl, 20 4-(2-hydroxyethyl)-1-piperazineethanesulfonic acid (HEPES) and 10 glucose (pH 7.4). We purchased all chemicals from Sigma-Aldrich (St. Louis, MO, USA) and dissolved them in water. Data were acquired using PATCHMASTER software version 2x73 (HEKA Elektronik Dr. Schulze GmbH, Lambrecht, Germany). We filtered macroscopic sodium currents at 5 kHz and sampled them at 20 kHz. We acquired voltage clamp recordings 5 min after establishing a whole-cell configuration to allow adequate equilibration between the micropipette solution and the cell interior. We elicited channel current by 50 milliseconds of depolarization potential to −10 mV from the holding voltage of −100 mV.
We analyzed the data using Igor Pro software version 6.10A (WaveMetrics, Lake Oswego, OR, USA), Sigmaplot software version 10 (Sigma, St. Louis, MO, USA), OriginPro software version 8 (OriginLab Corp., Northampton, MA, USA) and Prism software version 5 (GraphPad Software, San Diego, CA, USA). Concentration–response curves were fitted using the following Hill logistic equation:y = fmax − (fmax − fmin)/(1 + (x/IC50)^n)(1) where fmax and fmin respectively represent the channel’s maximum and minimum responses to toxins, fmin was set to 0, x represents toxin concentration and n is an empirical Hill coefficient. All quantitative results are presented as mean ± standard error of the mean (SEM).

insect sodium channels = details: cited from earlier work
Excerpt: (§1) Previously, we reported the identification of 33-residue peptide µ-TRTX-Hhn2b (HNTX-I), a member of NaSpTx family 1, from the venom of the spider Selenocosmia hainana. Although the amino acid sequence of this family is highly conserved, HNTX-I has shown weak affinity on insect sodium channels and no effect on mammalian voltage-gated sodium channels (VGSCs), unlike the majority of peptide toxins in NaSpTx family 1 [20]. In this study, we used HNTX-I as a framework and engineered analogues of it based on sequence conservation in the family. Ultimately, we engineered a gain-of-function analogue ...

[1] = tested on: mammalian voltage-gated sodium channels (VGSCs); details: including hNaV1.7; cited from earlier work
Excerpt: as §1, with “Pain is a medical condition that interferes with normal human life and work and reduces human well-being worldwide. Human voltage-gated sodium channel NaV1.7 (hNaV1.7) is a compelling target that plays a key role in human pain signaling. […] We engineered analogues of HNTX-I based on sequence conservation in NaSpTx family 1. Substitution of Asn for Ser at position 23 or Asp for His at ... || Previously,” for “Previously,”

T1 sequence (O60939 30-215): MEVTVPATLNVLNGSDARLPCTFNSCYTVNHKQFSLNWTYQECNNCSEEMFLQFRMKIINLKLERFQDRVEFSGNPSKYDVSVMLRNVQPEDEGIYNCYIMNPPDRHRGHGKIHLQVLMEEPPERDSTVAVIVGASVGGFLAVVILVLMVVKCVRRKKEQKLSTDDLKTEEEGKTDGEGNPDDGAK
T1 sequence (Q07699 19-218, further chain): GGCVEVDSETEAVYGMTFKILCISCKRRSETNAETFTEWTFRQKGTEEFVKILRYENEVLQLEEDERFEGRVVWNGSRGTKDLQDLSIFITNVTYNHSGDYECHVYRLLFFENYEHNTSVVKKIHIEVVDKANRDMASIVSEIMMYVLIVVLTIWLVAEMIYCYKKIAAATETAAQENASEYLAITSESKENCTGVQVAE
T1 sequence (Q15858 other isoform, or with tags, fused parts or gaps): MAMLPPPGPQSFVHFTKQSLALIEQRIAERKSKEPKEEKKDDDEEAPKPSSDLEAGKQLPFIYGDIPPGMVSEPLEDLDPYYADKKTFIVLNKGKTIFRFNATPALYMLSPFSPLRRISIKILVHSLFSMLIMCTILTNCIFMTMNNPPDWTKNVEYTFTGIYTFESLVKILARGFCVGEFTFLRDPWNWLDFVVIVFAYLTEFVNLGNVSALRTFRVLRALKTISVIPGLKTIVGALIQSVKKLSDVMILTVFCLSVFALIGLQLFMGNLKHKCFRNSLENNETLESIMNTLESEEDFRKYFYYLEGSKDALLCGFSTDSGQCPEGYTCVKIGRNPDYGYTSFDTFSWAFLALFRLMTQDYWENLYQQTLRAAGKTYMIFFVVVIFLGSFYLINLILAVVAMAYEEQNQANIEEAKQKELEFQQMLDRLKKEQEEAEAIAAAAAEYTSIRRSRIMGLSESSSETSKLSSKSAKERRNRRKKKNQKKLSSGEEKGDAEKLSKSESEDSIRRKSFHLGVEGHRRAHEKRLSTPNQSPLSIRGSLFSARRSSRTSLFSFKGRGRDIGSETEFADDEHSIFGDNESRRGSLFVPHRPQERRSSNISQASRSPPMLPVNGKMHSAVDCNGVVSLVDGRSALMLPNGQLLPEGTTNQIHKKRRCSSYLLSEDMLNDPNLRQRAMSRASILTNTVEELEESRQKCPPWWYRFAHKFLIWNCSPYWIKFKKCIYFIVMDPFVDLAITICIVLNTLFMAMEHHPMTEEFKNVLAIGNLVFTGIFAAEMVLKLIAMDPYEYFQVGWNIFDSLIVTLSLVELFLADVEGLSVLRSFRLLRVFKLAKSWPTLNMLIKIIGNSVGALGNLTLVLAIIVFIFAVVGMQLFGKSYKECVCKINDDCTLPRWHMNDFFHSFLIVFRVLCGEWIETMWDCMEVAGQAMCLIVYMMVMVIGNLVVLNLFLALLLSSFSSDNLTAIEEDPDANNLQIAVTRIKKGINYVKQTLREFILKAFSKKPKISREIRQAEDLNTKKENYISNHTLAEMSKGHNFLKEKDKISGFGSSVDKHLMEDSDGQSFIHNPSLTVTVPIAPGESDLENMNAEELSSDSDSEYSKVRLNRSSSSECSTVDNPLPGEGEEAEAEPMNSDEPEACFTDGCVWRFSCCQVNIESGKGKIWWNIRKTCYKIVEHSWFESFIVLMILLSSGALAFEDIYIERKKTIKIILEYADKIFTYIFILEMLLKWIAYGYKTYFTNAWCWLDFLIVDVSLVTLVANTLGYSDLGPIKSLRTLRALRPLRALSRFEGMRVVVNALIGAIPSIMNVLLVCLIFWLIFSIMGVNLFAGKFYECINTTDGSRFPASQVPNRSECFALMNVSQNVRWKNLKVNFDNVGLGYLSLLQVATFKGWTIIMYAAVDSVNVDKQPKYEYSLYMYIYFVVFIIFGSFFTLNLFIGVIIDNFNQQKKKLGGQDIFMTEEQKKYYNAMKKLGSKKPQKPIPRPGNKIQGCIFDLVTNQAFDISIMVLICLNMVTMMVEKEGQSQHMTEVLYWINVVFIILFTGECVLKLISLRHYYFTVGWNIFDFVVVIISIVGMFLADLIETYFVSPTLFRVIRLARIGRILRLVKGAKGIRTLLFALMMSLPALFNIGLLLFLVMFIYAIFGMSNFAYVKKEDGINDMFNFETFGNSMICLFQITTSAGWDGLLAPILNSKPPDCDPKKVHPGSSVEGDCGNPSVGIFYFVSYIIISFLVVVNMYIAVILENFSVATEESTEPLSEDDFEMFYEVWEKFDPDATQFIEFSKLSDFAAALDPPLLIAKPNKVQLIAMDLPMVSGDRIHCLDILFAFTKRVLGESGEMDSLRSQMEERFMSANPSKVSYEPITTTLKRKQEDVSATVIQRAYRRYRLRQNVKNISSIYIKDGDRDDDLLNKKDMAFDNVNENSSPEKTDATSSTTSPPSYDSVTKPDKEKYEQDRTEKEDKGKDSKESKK

CC(C)C[C@H](NC(=O)[C@H](Cc1c[nH]c2ccccc12)NC(=O)[C@@H](NC(=O)[C@H](CCCCN)NC(=O)[C@@H]1CSSC[C@@H]2NC(=O)[C@H](CCC(=O)O)NC(=O)[C@H](CC(N)=O)NC(=O)[C@H](CCCCN)NC(=O)CNC(=O)[C@@H]3CCCN3C(=O)[C@H](C(C)C)NC(=O)[C@@H]3CSSC[C@H](NC(=O)[C@H](C)NC(=O)[C@H](Cc4ccc(O)cc4)NC(=O)CNC(=O)[C@H](CO)NC(=O)[C@H](CSSC[C@H](NC(=O)CN)C(=O)N[C@@H](CCCCN)C(=O)NCC(=O)N[C@@H](Cc4ccccc4)C(=O)NCC(=O)N[C@@H](CCCCN)C(=O)N[C@@H](CO)C(=O)N3)NC2=O)C(=O)N[C@@H](CO)C(=O)N[C@@H](CO)C(=O)N[C@@H](CCCNC(=N)N)C(=O)N[C@@H](Cc2c[nH]cn2)C(=O)N[C@@H](CCCCN)C(=O)N[C@@H](Cc2c[nH]c3ccccc23)C(=O)N1)C(C)C)C(=O)O [E1G–N23S–D26H–L32W] (H-GCKGFGKSCVPGKNECCSGYACSSRHKWCKVWL-OH; disulfide 2-17, 9-22, 16-29)
IC50 (hNaV1.7; n ≥ 3, SEM): 36 ± 7 nM

CC(C)C[C@H](NC(=O)[C@H](CC(C)C)NC(=O)[C@@H](NC(=O)[C@H](CCCCN)NC(=O)[C@@H]1CSSC[C@@H]2NC(=O)[C@H](CCC(=O)O)NC(=O)[C@H](CC(N)=O)NC(=O)[C@H](CCCCN)NC(=O)CNC(=O)[C@@H]3CCCN3C(=O)[C@H](C(C)C)NC(=O)[C@@H]3CSSC[C@H](NC(=O)[C@H](C)NC(=O)[C@H](Cc4ccc(O)cc4)NC(=O)CNC(=O)[C@H](CO)NC(=O)[C@H](CSSC[C@H](NC(=O)[C@@H](N)CCC(=O)O)C(=O)N[C@@H](CCCCN)C(=O)NCC(=O)N[C@@H](Cc4ccccc4)C(=O)NCC(=O)N[C@@H](CCCCN)C(=O)N[C@@H](CO)C(=O)N3)NC2=O)C(=O)N[C@@H](CC(N)=O)C(=O)N[C@@H](CO)C(=O)N[C@@H](CCCNC(=N)N)C(=O)N[C@@H](CC(=O)O)C(=O)N[C@@H](CCCCN)C(=O)N[C@@H](Cc2c[nH]c3ccccc23)C(=O)N1)C(C)C)C(=O)O [Native HNTX-I] (H-ECKGFGKSCVPGKNECCSGYACNSRDKWCKVLL-OH; disulfide 2-17, 9-22, 16-29 (inferred); N-terminus and C-terminus assumed)
Affinity on insect sodium channels (insect sodium channels): weak affinity
Effect on mammalian voltage-gated sodium channels (VGSCs) [1]: negligible activity; also recorded: no effect
Activity on NaV1.7 at a concentration of 10 µM (hNaV1.7; 10 µM peptide, HEK 293 cells (Figure 2A–C)): negligible activity
IC50 (hNaV1.7; n ≥ 3): > 10000 nM

CC(C)C[C@H](NC(=O)[C@H](Cc1c[nH]c2ccccc12)NC(=O)[C@@H](NC(=O)[C@H](CCCCN)NC(=O)[C@@H]1CSSC[C@@H]2NC(=O)[C@H](CCC(=O)O)NC(=O)[C@H](CC(N)=O)NC(=O)[C@H](CCCCN)NC(=O)CNC(=O)[C@@H]3CCCN3C(=O)[C@H](C(C)C)NC(=O)[C@@H]3CSSC[C@H](NC(=O)[C@H](C)NC(=O)[C@H](Cc4ccc(O)cc4)NC(=O)CNC(=O)[C@H](CO)NC(=O)[C@H](CSSC[C@H](NC(=O)CN)C(=O)N[C@@H](CCCCN)C(=O)NCC(=O)N[C@@H](Cc4ccccc4)C(=O)NCC(=O)N[C@@H](CCCCN)C(=O)N[C@@H](CO)C(=O)N3)NC2=O)C(=O)N[C@@H](CC(N)=O)C(=O)N[C@@H](CO)C(=O)N[C@@H](CCCCN)C(=O)N[C@@H](Cc2c[nH]cn2)C(=O)N[C@@H](CCCCN)C(=O)N[C@@H](Cc2c[nH]c3ccccc23)C(=O)N1)C(C)C)C(=O)O [E1G–R25K–D26H–L32W] (H-GCKGFGKSCVPGKNECCSGYACNSKHKWCKVWL-OH; disulfide 2-17, 9-22, 16-29)
IC50 (hNaV1.7; n ≥ 3, SEM): 669 ± 70 nM

CC(C)C[C@H](NC(=O)[C@H](CC(C)C)NC(=O)[C@@H](NC(=O)[C@H](CCCCN)NC(=O)[C@@H]1CSSC[C@@H]2NC(=O)[C@H](CCC(=O)O)NC(=O)[C@H](CC(N)=O)NC(=O)[C@H](CCCCN)NC(=O)CNC(=O)[C@@H]3CCCN3C(=O)[C@H](C(C)C)NC(=O)[C@@H]3CSSC[C@H](NC(=O)[C@H](C)NC(=O)[C@H](Cc4ccc(O)cc4)NC(=O)CNC(=O)[C@H](CO)NC(=O)[C@H](CSSC[C@H](NC(=O)CN)C(=O)N[C@@H](CCCCN)C(=O)NCC(=O)N[C@@H](Cc4ccccc4)C(=O)NCC(=O)N[C@@H](CCCCN)C(=O)N[C@@H](CO)C(=O)N3)NC2=O)C(=O)N[C@@H](CC(N)=O)C(=O)N[C@@H](CO)C(=O)N[C@@H](CCCCN)C(=O)N[C@@H](Cc2c[nH]cn2)C(=O)N[C@@H](CCCCN)C(=O)N[C@@H](Cc2c[nH]c3ccccc23)C(=O)N1)C(C)C)C(=O)O [E1G–R25K–D26H] (H-GCKGFGKSCVPGKNECCSGYACNSKHKWCKVLL-OH; disulfide 2-17, 9-22, 16-29)
IC50 (hNaV1.7; n ≥ 3, SEM): 766 ± 29 nM
